Assay results reported in US8536168B2 (Novartis AG, priority 2007, dated 2013).
Like-named read-outs stand apart in the source and are kept apart here.

Columns and labels:
[1] = molecular target: human Smoothened receptor (Homo sapiens, UniProt Q99835); experiment: Smo binding assay, displacement of radio-labeled smoothened agonist, filter binding format (human); conditions: displacement of small molecule agonist of Smoothened, read-out: Human Smo bdg., IC50
From the text: A Smo binding assay was developed using radio-labeled smoothened agonist for compound competition. Table 9 lists the IC50 for displacement of a small molecule agonist of Smoothened determined in a filter binding format for the mouse and human Smoothened receptor.

[2] = tested on: Gli-luciferase activity; experiment: Reporter gene assay (RGA) in TMHh12 cells, antagonism of Gli-luciferase activity in the presence of a Smo agonist; format: cell-based
Protocol: Activity of the compounds was evaluated using a reporter gene assay (RGA) in TMHh12 cells.

[3] = molecular target: mouse Smoothened receptor (Mus musculus, UniProt P56726); experiment: Smo binding assay, displacement of radio-labeled smoothened agonist, filter binding format (mouse); conditions: displacement of small molecule agonist of Smoothened, read-out: Mouse Smo bdg., IC50
mouse Smoothened receptor, sequence (P56726 33-793): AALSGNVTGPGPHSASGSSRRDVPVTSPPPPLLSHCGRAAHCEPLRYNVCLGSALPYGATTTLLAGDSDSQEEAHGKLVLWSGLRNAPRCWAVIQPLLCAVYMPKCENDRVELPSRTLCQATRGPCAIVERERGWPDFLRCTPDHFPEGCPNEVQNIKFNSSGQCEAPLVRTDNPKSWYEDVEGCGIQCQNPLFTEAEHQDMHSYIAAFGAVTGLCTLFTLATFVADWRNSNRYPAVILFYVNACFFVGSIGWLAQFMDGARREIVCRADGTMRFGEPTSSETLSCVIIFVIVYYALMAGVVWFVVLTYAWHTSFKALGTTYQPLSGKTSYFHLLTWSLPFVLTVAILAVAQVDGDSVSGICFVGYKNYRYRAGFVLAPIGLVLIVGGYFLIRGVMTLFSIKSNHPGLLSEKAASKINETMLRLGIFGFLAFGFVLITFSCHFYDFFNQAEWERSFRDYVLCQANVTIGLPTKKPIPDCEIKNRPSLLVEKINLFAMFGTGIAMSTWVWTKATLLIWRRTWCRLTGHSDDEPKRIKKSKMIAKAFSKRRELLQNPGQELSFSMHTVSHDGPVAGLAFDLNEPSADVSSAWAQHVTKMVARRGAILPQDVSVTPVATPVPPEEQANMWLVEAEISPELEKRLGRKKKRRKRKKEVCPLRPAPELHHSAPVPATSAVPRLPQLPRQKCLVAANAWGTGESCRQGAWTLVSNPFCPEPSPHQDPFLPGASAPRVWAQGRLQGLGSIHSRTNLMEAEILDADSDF
From the text: A Smo binding assay was developed using radio-labeled smoothened agonist for compound competition.

[4] = 25 nM small molecule Smo agonist, read-out: RGA (25 nM Smo agonist) IC50
[5] = read-out: RGA (1 nM Smo agonist) IC50, 1 nM small molecule Smo agonist

human Smoothened receptor, sequence (Q99835 28-787): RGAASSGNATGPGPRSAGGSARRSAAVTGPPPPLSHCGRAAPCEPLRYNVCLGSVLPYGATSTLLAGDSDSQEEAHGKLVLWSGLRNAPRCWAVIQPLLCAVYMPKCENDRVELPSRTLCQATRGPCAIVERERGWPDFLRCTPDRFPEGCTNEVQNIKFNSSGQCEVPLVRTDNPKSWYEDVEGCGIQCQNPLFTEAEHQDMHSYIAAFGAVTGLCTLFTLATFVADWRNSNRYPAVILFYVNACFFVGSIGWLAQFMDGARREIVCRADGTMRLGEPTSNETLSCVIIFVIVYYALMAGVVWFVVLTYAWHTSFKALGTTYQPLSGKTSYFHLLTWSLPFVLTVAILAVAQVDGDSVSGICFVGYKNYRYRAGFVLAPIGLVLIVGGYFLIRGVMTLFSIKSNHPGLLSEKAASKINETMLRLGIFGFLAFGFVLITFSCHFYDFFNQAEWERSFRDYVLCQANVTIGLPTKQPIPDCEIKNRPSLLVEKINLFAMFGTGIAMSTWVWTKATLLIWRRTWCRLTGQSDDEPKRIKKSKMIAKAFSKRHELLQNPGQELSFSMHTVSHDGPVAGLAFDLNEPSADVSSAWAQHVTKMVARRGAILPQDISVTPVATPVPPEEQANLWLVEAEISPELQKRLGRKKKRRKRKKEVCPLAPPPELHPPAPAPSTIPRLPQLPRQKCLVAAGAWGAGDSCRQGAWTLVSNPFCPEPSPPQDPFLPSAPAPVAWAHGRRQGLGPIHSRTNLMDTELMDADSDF

SMILES	IC50 [1] [nM]	IC50 [2, 4] [nM]	IC50 [2, 5] [nM]	IC50 [3] [nM]
N#Cc1cnc(N2CCN(c3nnc(Cc4ccccc4)c4ccccc34)CC2)nc1 [Example 39, 2-[4-(4-Benzyl-phthalazin-1-yl)-piperazin-1-yl]-pyrimidine-5-carbonitrile]	100 to 1000	100 to 1000	< 100	100 to 1000
Fc1cc(Cl)cnc1N1CCN(c2nnc(Cc3ccccc3)c3ccccc23)CC1 [Example 49]	100 to 1000	100 to 1000	< 100	100 to 1000
OC1CCN(Cc2ccc(N3CCN(c4nnc(Cc5ccccc5)c5ccccc45)CC3)nc2)C1 (stereo not shown) [Example 223]	100 to 1000	100 to 1000	< 100	< 100
CN(C)C(=O)Nc1ccc(N2CCN(c3nnc(Cc4ccccc4)c4ccccc34)CC2)nc1 [Example 238, 3-{6-[4-(4-Benzyl-phthalazin-1-yl)-piperazin-1-yl]-pyridin-3-yl}-1,1-dimethyl-urea]	100 to 1000	100 to 1000	< 100	100 to 1000
CC(c1ccccc1)c1nnc(N2CCN(c3ccc(C#N)cn3)CC2)c2ccccc12 (stereo not shown) [Example 68]	1000 to 10000	1000 to 10000	100 to 1000	1000 to 10000
Cc1cc(Cc2ccc(F)cc2)nnc1N1CCN(c2ccc(C(F)(F)F)cn2)CC1 [Example 90]	< 100	1000 to 10000	< 100	< 100
CC(C)(O)c1ccc(N2CCN(c3nnc(Cc4ccccc4Cl)c4ccccc34)CC2)nc1 [Example 192]	< 100	100 to 1000	< 100	< 100
CC(C)(O)c1cnc(N2CCN(c3nnc(Cc4ccccc4)c4ccccc34)CC2)nc1C(F)(F)F [Example 149]	< 100	< 100	< 100	< 100
CC(O)(CO)c1cnc(N2CCN(c3nnc(Cc4ccccc4)c4ccccc34)CC2)cn1 (stereo not shown) [Example 166, 2-[4-(4-Benzyl-phthalazin-1-yl)-3,4,5,6-tetrahydro-2H-[1,2′]bipyrazinyl-5′-yl]-propane-1,2-diol]	< 100	100 to 1000	< 100	< 100
CN(C)C(=O)c1ccc(N2CCN(c3nnc(Cc4ccccc4)c4ccccc34)CC2)nc1 [Example 54s]	100 to 1000	100 to 1000	< 100	< 100
N#Cc1ccc(N2CCN(c3nnc(Cc4ccc(Cl)c(C(F)(F)F)c4)c4ccccc34)CC2)nc1 [Example 178]	100 to 1000	100 to 1000	100 to 1000	100 to 1000
CCOC(=O)c1ccc(N2CCN(c3nnc(Cc4ccccc4)c4ccccc34)C[C@H]2C)nc1 [Example 144, 6-[(R)-4-(4-Benzyl-phthalazin-1-yl)-2-methyl-piperazin-1-yl]-nicotinic acid ethyl ester]	< 100	100 to 1000	< 100	< 100
O=C(NC1CN(C(=O)OCc2ccccc2)C1)c1ccc(N2CCN(c3nnc(Cc4ccccc4)c4ccccc34)CC2)nc1 [Example 54x]	< 100	100 to 1000	100 to 1000	100 to 1000
OC(c1ccc(N2CCN(c3nnc(Cc4ccccc4)c4ccccc34)CC2)nc1)C1CCCC1 (stereo not shown) [Example 221]	< 100	100 to 1000	< 100	< 100
C[C@H]1CN(c2ccc(C(C)(C)O)cn2)CCN1c1nnc(Cc2ccccc2Cl)c2ccccc12 [Example 196]	< 100	< 100	< 100	< 100
CC(O)CC(=O)NCc1ccc(N2CCN(c3nnc(Cc4ccccc4)c4ccccc34)CC2)nc1 (stereo not shown) [Example 213]	100 to 1000	100 to 1000	< 100	100 to 1000
COc1ccc(Cc2nnc(N3CCN(c4ccc(C#N)cn4)CC3)c3ccccc23)cc1 [Example 64]	100 to 1000	1000 to 10000	< 100	100 to 1000

SMILES	IC50 [1] [nM]	IC50 [2, 4] [nM]	IC50 [2, 5] [nM]	IC50 [3] [nM]
CCN(CCO)C(=O)c1ccc(N2CCN(c3nnc(Cc4ccccc4)c4ccccc34)CC2)nc1 [Example 54d]	< 100	< 100	< 100	< 100
FC(F)(F)c1ccc(N2CCN(c3nnc(Cc4ccccc4)c4ccoc34)CC2)nc1 [Example 246, 4-Benzyl-7-[4-(5-trifluoromethyl-pyridin-2-yl)-piperazin-1-yl]-furo[2,3-d]pyridazine]	1000 to 10000	1000 to 10000	< 100	10000 to 40000
Cc1cc(Cc2ccccc2)nnc1N1CCN(c2ccc(C#N)cn2)CC1 [Example 86]	1000 to 10000	1000 to 10000	100 to 1000	1000 to 10000
CN(CCO)C(=O)c1ccc(N2CCN(c3nnc(Cc4ccc(F)cc4F)c4ccccc34)CC2)nc1 [Example 199]	100 to 1000	100 to 1000	< 100	100 to 1000
c1ccc(Cc2nnc(N3CCN(c4ccc(CNC5COC5)cn4)CC3)c3ccccc23)cc1 [Example 230]	100 to 1000	100 to 1000	< 100	100 to 1000
CC(C)CC(=O)NCc1ccc(N2CCN(c3nnc(Cc4ccccc4)c4ccccc34)CC2)nc1 [Example 210]	< 100	< 100	< 100	< 100
O=S(=O)(c1ccc(N2CCN(c3nnc(Cc4ccccc4)c4ccccc34)CC2)nc1)N1CCCC1 [Example 133]	100 to 1000	100 to 1000	< 100	100 to 1000
Fc1cnc(F)c(N2CCN(c3nnc(Cc4ccccc4)c4ccccc34)CC2)c1 [Example 51]	1000 to 10000	1000 to 10000	100 to 1000	1000 to 10000
COc1ccccc1Cc1nnc(N2CCN(c3ccc(C#N)cn3)CC2)c2ccccc12 [Example 175]	1000 to 10000	1000 to 10000	100 to 1000	100 to 1000
CC(O)c1ccc(N2CCN(c3nnc(Cc4ccccc4)c4ccccc34)CC2)nc1 (stereo not shown) [Example 163, 1-{6-[4-(4-Benzyl-phthalazin-1-yl)-piperazin-1-yl]-pyridin-3-yl}-ethanol]	< 100	100 to 1000	< 100	< 100
OC(c1ccc(N2CCN(c3nnc(Cc4ccccc4)c4ccccc34)CC2)nc1)C1CC1 (stereo not shown) [Example 219]	< 100	100 to 1000	100 to 1000	< 100
COC(=O)c1ccc(Cc2nnc(N3CCN(c4ccc(C#N)cn4)CC3)c3ccccc23)cc1 [Example 179]	100 to 1000	10000 to 40000	100 to 1000	100 to 1000
NC1CN(C(=O)c2ccc(N3CCN(c4nnc(Cc5ccccc5)c5ccccc45)CC3)nc2)C1 [Example 54w]	10000 to 40000	1000 to 10000	100 to 1000	1000 to 10000
CN(CCCO)C(=O)c1ccc(N2CCN(c3nnc(Cc4ccccc4)c4ccccc34)CC2)nc1 [Example 54t]	100 to 1000	100 to 1000	< 100	< 100
COCC(=O)OCc1ccc(N2CCN(c3nnc(Cc4ccccc4)c4ccccc34)CC2)nc1 [Example 159, Methoxy-acetic acid 6-[4-(4-benzyl-phthalazin-1-yl)-piperazin-1-yl]-pyridin-3-ylmethyl ester]	100 to 1000	1000 to 10000	100 to 1000	100 to 1000
FC1(F)CCN(Cc2ccc(N3CCN(c4nnc(Cc5ccccc5)c5ccccc45)CC3)nc2)CC1 [Example 228]	< 100	100 to 1000	100 to 1000	< 100
O=C1CN(c2nnc(Cc3ccccc3)c3ccccc23)CCN1c1ccccc1 [Example 108]	100 to 1000	1000 to 10000	100 to 1000	100 to 1000
